Consider 19 compounds from patent US10919896B2, “Preparation and uses of pyrimidinone derivatives” (Cancer Research Technology Limited, priority 2016, dated 2021).

Each structure is given as a SMILES string. Where a name gives a salt, the structure may show the parent alone.

The test system of experiment [1] is Cdc7 (pS53MCM2 levels in HCT116 cells). Nature of the experiment: Cdc7 Cell Pharmacodynamics Assay Method 1: pS53MCM2 levels in HCT116 cells, 6 hours. In kind it is cell-based. Particulars: Homo sapiens, HCT-116, 6 h, read-out: Biomarker Method 1 (pEC50) (converted). Summed up: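 HCT116 cells (wild-type p53), 20,000 per well in McCoys 5A with 10% FCS, treated with compound for 6 h at 37 °C. Lysates captured on total-MCM2 antibody and probed with anti-pMCM2 Ser53 plus HRP secondary; chemiluminescent read-out of pS53MCM2 levels.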

The next experiment concerns the target Cdc7/Dbf4 (Homo sapiens, UniProt O00311). Description: Cdc7 Biochemical Assay Method 3: Cdc7/Dbf4 Enzyme TR-FRET Assay measuring pS40MCM2. The following applies: 1 μM ATP, read-out: Biochemical Method 3 (pIC50) (converted). Summed up: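 2.5 nM Cdc7/Dbf4 incubated with 100 nM biotinylated MCM2-derived peptide and 1 μM ATP, 120 minutes at 25° C. Phospho-S40 detected by TR-FRET using anti-pS40 Mcm2 antibody, terbium anti-rabbit secondary and streptavidin-Alexa Fluor488.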

Another experiment concerns the target Cdc7/ASK (Homo sapiens, UniProt O00311). Nature of the experiment: Cdc7 Biochemical Assay Method 2: 384 well mobility shift assay (EZ Reader II), MCM2 peptide substrate. Particulars: 12.5 μM ATP, read-out: Biochemical Method 2 (pIC50) (converted). Details: purchased. The method, then:
This protocol describes a method for assaying Cdc7/ASK for activity. The assay is a 384 well mobility shift assay (MSA) run on the EZ Reader II microfluidics plate reader (Caliper LifeSciences), utilising a peptide substrate based on the MCM2 sequence. The assay technology is based on the change in mobility between the peptide substrate and the phosphorylated product. A 10 nL volume of the reaction mixture is sipped onto the microfluidic chip where the substrate and product are separated by electrophoresis and detected via laser-induced fluorescence (488 nm LED). The reaction can be monitored in real-time for kinetic experiments or as an end-point for IC50 determinations. The % conversion of substrate is calculated from peak heights of product (P) and substrate (S) peptides (% conversion=P/(P+S)*100).
• 10× Assay Buffer: 200 mM HEPES pH 8, 100 mM MgCl2, 0.1% v/v Triton X-100 and 15 mM DTT. Prepare fresh buffer from 1 M HEPES pH 8, 1 M MgCl2, 1 M DTT and 10% Triton x-100 stocks for each experiment. • Cdc7/ASK is purchased from commercial suppliers and used in the assay at a final assay concentration of 0.847 ng/μL or 9.2 nM. • MCM2 peptide is purchased from commercial suppliers and used in the assay at a final assay concentration of 2.5 μM. • ATP used in the assay at a final assay concentration of 12.5 μM. Methods • 1. Prepare intermediate (daughter) compound plate by transferring 2 μL of compound from the mother plate to 18 μL of 33.3% DMSO in a clear polypropylene plate. • 2. Dry-spot 1 μL of compound from the intermediate compound plate to empty assay plate. • 3. Add 5 μL of 1.694 ng/μL CDC7/ASK working solution to ‘test’ and ‘control’ wells or […] of 2× Assay Buffer to ‘blank’ wells. • 4. Add 4 μL 2.5 μM peptide/12.5 μM ATP working solution to all wells. • 5. Incubate at 37° C. for 1 hour then remove from the incubator and leave for a further 1 hour at room temperature. • 6. Place plate into an EZReader II to read.
Percentage inhibition values were calculated from % of substrate conversion values, using the no compound (DMSO) and no enzyme control values as 0% and 100% inhibition, respectively. IC50 determination was performed with ExcelFit software (IDBS) using curve fit 205. Z′ factors were determined for each plate tested and were all above 0.5.

Sequence of Cdc7/Dbf4 (O00311 whole entry): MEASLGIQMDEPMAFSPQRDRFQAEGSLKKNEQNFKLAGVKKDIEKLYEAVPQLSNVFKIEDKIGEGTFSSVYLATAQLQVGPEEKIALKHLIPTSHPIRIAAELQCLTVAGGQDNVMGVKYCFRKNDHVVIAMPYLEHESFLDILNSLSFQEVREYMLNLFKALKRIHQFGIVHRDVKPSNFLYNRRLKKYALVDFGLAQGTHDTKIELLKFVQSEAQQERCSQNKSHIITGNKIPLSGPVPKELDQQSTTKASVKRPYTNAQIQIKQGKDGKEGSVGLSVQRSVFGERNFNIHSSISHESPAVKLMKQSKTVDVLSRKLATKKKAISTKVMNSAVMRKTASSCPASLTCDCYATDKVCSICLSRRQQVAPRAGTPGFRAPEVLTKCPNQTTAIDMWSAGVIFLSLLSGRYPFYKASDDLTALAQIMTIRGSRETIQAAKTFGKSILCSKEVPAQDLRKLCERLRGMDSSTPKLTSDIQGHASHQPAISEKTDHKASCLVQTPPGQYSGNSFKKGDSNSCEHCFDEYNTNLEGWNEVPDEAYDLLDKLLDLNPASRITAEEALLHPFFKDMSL
Sequence of Cdc7/Dbf4 (Q9UBU7 whole entry partner): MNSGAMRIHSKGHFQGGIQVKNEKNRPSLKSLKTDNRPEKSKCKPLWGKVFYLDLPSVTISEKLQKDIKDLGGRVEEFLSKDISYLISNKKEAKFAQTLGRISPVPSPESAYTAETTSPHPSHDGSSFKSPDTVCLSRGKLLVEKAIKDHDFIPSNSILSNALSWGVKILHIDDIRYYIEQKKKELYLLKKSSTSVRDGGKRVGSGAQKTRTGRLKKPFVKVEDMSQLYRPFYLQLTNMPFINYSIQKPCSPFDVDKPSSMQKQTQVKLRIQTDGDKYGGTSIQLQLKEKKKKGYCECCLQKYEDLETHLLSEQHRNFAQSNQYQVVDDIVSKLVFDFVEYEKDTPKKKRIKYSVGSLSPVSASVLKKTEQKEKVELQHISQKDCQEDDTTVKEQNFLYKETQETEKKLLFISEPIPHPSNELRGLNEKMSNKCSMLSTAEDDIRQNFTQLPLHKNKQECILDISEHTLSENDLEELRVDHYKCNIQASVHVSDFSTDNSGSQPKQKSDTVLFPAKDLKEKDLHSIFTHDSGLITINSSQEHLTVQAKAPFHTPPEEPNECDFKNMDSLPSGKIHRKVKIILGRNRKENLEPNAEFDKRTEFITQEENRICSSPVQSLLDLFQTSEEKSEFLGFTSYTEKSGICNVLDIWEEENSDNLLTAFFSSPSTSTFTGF
Sequence of Cdc7/ASK (O00311 whole entry): as the sequence (O00311 whole entry) above
Sequence of Cdc7/ASK (Q9UBU7 whole entry partner): as the sequence (Q9UBU7 whole entry partner) above

`O=c1[nH]c(-c2ccnc(F)c2)nc(N2CCCC(F)(F)C2)c1Cl` [Compound 90, 5-chloro-4-(3,3-difluoro-1-piperidyl)-2-(2-fluoro-4-pyridyl)-1H-pyrimidin-6-one]: the EC50 in experiment [1] is 33.1 nM. On Cdc7/Dbf4, the IC50 is 0.355 nM.
The like results for `C[C@H]1CN(c2nc(-c3ccncc3)[nH]c(=O)c2Cl)CCN1` [Compound 130] were, in that order, 107 nM and 2.34 nM.
Regarding `O=c1[nH]c(-c2ccncc2)nc(N2CCN[C@H](C(F)(F)F)C2)c1Cl` [Compound 139], in experiment [1], the EC50 was 324 nM. The IC50 at Cdc7/Dbf4 was 4.07 nM.
For `O=c1[nH]c(-c2ccncc2)nc(N2CCN(CC(F)F)CC2)c1Cl` [Compound 147] the same measures were 115 nM and 1.55 nM.
`CC(C)[C@H]1CN(c2nc(-c3ccnc(F)c3)[nH]c(=O)c2Cl)CCN1` [Compound 170]: the EC50 in experiment [1] was 31.6 nM. The IC50 on Cdc7/ASK was 1.17 nM; at Cdc7/Dbf4, 1.05 nM.
In the case of `O=c1[nH]c(-c2ccncc2)nc(N2CCN[C@@H](C(F)(F)F)C2)c1Cl` [Compound 180], the EC50 in experiment [1] was 26.9 nM. For the same compound, at Cdc7/Dbf4, the IC50 was 1.38 nM.
In the case of `CC(C)(C)[C@H]1CN(c2nc(-c3ccncc3)[nH]c(=O)c2F)CCN1` [Compound 185], the EC50 in experiment [1] was 85.1 nM. The IC50 is 0.776 nM at Cdc7/ASK and 0.724 nM on Cdc7/Dbf4.
For the compound `O=c1[nH]c(-c2ccncc2)nc(N2CCCOCC2)c1Cl` [Compound 186], in experiment [1], the EC50 is 347 nM. On Cdc7/ASK, the IC50 was 3.89 nM.
For `CC(C)[C@H]1CN(c2nc(-c3ccncc3)[nH]c(=O)c2F)CCN1` [Compound 308] the same measures were 178 nM and 0.912 nM.
For `O=c1[nH]c(-c2ccnc(F)c2)nc(N2CCNCC(F)(F)C2)c1Cl` [Compound 312, 5-chloro-4-(6,6-difluoro-1,4-diazepan-1-yl)-2-(2-fluoro-4-pyridyl)-1H-pyrimidin-6-one hydrochloride], at Cdc7/Dbf4, the IC50 is 0.589 nM.
With `O=c1[nH]c(-c2ccnc(F)c2)nc(N2CCN[C@@H](C(F)(F)F)C2)c1Cl` [Compound 314], in experiment [1], the EC50 is 12.3 nM. In addition, at Cdc7/ASK, the IC50 is 0.575 nM.
On to `O=c1[nH]c(-c2ccnc(F)c2)nc(N2CCOCC2)c1Cl` [Compound 316], for which the EC50 in experiment [1] was 39.8 nM. Also, the IC50 at Cdc7/Dbf4 is 0.525 nM.
Turning to `N[C@H]1CCCN(c2nc(-c3ccnc(F)c3)[nH]c(=O)c2Cl)C1` [Compound 317], the EC50 in experiment [1] was 97.7 nM. Also, the IC50 is 1.02 nM on Cdc7/ASK and 0.676 nM at Cdc7/Dbf4.
As for `N[C@@H]1CCCN(c2nc(-c3ccnc(F)c3)[nH]c(=O)c2Cl)C1` [Compound 319], the EC50 in experiment [1] is 74.1 nM. Also, the IC50 is 1.51 nM at Cdc7/ASK and 0.933 nM at Cdc7/Dbf4.
The like results for `C[C@@H]1CNCCN1c1nc(-c2ccnc(F)c2)[nH]c(=O)c1Cl` [Compound 323] were, in that order, 22.4 nM, 0.575 nM and 0.537 nM.
Take `O=c1[nH]c(-c2ccnc(F)c2)nc(N2CCNCC2)c1Cl` [Compound 360]: in experiment [1], the EC50 was 57.5 nM. Moreover, at Cdc7/Dbf4, the IC50 is 0.871 nM.
As for `NC[C@H]1CCCN(c2nc(-c3ccnc(F)c3)[nH]c(=O)c2Cl)C1` [Compound 362], the EC50 in experiment [1] is 302 nM. In addition, the IC50 on Cdc7/ASK is 0.741 nM.
For `NC[C@@H]1CCCN(c2nc(-c3ccnc(F)c3)[nH]c(=O)c2Cl)C1` [Compound 363], the EC50 in experiment [1] was 794 nM. Further, at Cdc7/ASK, the IC50 was 1.78 nM.
Turning to `C[C@@H]1CNCCN1c1nc(-c2ccncc2)[nH]c(=O)c1Cl` [Compound 364], the EC50 in experiment [1] is 20.4 nM. In addition, the IC50 on Cdc7/ASK was 0.501 nM; at Cdc7/Dbf4, 1.41 nM.
